Results from patent publication US20250381198A1 (Melt Pharmaceuticals, Inc., priority 2024, published 2025).

Tests used:
[1] = test system: subjects undergoing cataract extraction with lens replacement (CELR); assay: Phase 2: subjects completing the surgery (and without interruption); assay type: in vivo, human; settings: Visit 2 (Day 1); full analysis set
Procedure: (§1) The number of subjects achieving analgesia response (observed) in the full analysis set was determined. Success in analgesia response was defined as NPRS<4 at the available at the available four intraoperative timepoints and a failure otherwise (e.g., any interoperative pain rescue was assumed to be a failure. Results are provided in TABLE 25. The number of subjects completing the surgery is provided in TABLE 26, and the number of subjects completing the surgery without interruption is provided in TABLE 27. For this measure, subjects completing the surgery without interruption (other than rescue medication) due to pain or anxiety were considered successes. The number of subjects requiring rescue sedative medication and those requiring analgesic medication are provided in TABLES 28 and 29, respectively. For all TABLES 25-29, p-Values between pairs of treatments were calculated and are provided.

[2] = test system: subjects undergoing cataract extraction with lens replacement (CELR); assay: Phase 2: subjects requiring rescue sedative medication; assay type: in vivo, human; settings: Visit 2 (Day 1); full analysis set
Procedure: as §1

[3] = test system: subjects undergoing cataract extraction with lens replacement (CELR); assay: Phase 2: subjects requiring rescue analgesic medication; assay type: in vivo, human; settings: Visit 2 (Day 1); full analysis set
Procedure: as §1

[4] = test system: subjects undergoing cataract extraction with lens replacement (CELR); assay: Phase 2: subjects wanting study drug again for a second surgery (11-point Likert scale); assay type: in vivo, human; settings: for Want Study Drug Again, Mean / Want Study Drug Again, Median: 11-point Likert scale of 0 (not likely at all) to 10 (extremely likely), full analysis set
Source text: Post-operation, subjects were asked whether they would want the study drug again for a second surgery using an 11-point Likert scale of 0 (not likely at all) to 10 (extremely likely).

[5] = test system: subjects undergoing cataract extraction with lens replacement (CELR); assay: Phase 2: mean intraoperative analgesia by the numeric pain rating scale; settings: for Intraoperative Numeric Pain Rating Scale, Mean / Intraoperative Numeric Pain Rating Scale, Median: full analysis set
Procedure: Mean intraoperative analgesia by the numeric pain rating scale (Min=0; Max=9) was assayed for each subject in the full analysis set at intraoperative timepoints: insertion of the speculum; corneal incision; insertion of phacoemulsion probe; insertion of the synthetic replacement lens. An average of the available timepoints was also calculated.

[6] = 11-point Likert scale, unpaired t-test
[7] = Average of Available Timepoints, adjusted for site (carry forward)
[8] = Average of Available Timepoints, adjusted for site (carry forward), repeated measures model with covariates for study center
[9] = Average of Available Timepoints, carry forward
[10] = Average of Available Timepoints, carry forward, repeated measures model
[11] = Average of Available Timepoints, observed
[12] = Average of Available Timepoints, observed, repeated measures model
[13] = Corneal incision, adjusted for site (carry forward)
[14] = Corneal incision, carry forward
[15] = Insertion of the phacoemulsion probe, adjusted for site (carry forward)
[16] = Insertion of the phacoemulsion probe, carry forward
[17] = Insertion of the phacoemulsion probe, observed
[18] = Insertion of the speculum, adjusted for site (carry forward)
[19] = Insertion of the speculum, carry forward
[20] = Insertion of the speculum, observed
[21] = Insertion of the synthetic replacement lens, adjusted for site (carry forward)
[22] = Insertion of the synthetic replacement lens, carry forward
[23] = Insertion of the synthetic replacement lens, observed
[24] = adjusted for site (carry forward), repeated measures model with covariates for study center
[25] = carry forward, repeated measures model
[26] = observed, repeated measures model

CNC1(c2ccccc2Cl)CCCCC1=O (centres unmarked) [Ketamine 50 mg]
Subjects Completing the Surgery without Interruption, No, % [1]: (6.3) %
Subjects Completing the Surgery without Interruption, Yes, % [1]: (93.7) %
Subjects Requiring Rescue Sedative Medication, Intraoperatively, % [2]: (6.3) %
Subjects Requiring Rescue Sedative Medication, No, % [2]: (63.3) %
Subjects Requiring Rescue Sedative Medication, Pre-operatively, % [2]: (30.4) %
Subjects Requiring Rescue Sedative Medication, Yes, % [2]: (36.7) %
Subjects Requiring Rescue Analgesic Medication, No, % [3]: (59.5) %
Subjects Requiring Rescue Analgesic Medication, Yes, % [3]: (40.5) %
Want Study Drug Again, Mean [4]: 7.6
Want Study Drug Again, Median [4]: 10.0
Want Study Drug Again, Mean Difference Versus Placebo [4, 6]: −0.05
Intraoperative Numeric Pain Rating Scale, Mean [5, 7]: 2.16
Intraoperative Numeric Pain Rating Scale, Median [5, 7]: 1.75
Intraoperative Numeric Pain Rating Scale, LS Mean [5, 8]: 1.89
Intraoperative Numeric Pain Rating Scale, Mean [5, 9]: 2.16
Intraoperative Numeric Pain Rating Scale, Median [5, 9]: 1.75
Intraoperative Numeric Pain Rating Scale, LS Mean [5, 10]: 2.16
Intraoperative Numeric Pain Rating Scale, Mean [5, 11]: 2.00
Intraoperative Numeric Pain Rating Scale, Median [5, 11]: 1.75
Intraoperative Numeric Pain Rating Scale, LS Mean [5, 12]: 2.22
Intraoperative Numeric Pain Rating Scale, Mean [5, 13]: 1.8
Intraoperative Numeric Pain Rating Scale, Median [5, 13]: 1.0
Intraoperative Numeric Pain Rating Scale, Mean [5, 14]: 1.8
Intraoperative Numeric Pain Rating Scale, Median [5, 14]: 1.0
Intraoperative Numeric Pain Rating Scale, Mean ([5]; Corneal incision, observed): 1.7
Intraoperative Numeric Pain Rating Scale, Median ([5]; Corneal incision, observed): 1.0
Intraoperative Numeric Pain Rating Scale, Mean [5, 15]: 2.5
Intraoperative Numeric Pain Rating Scale, Median [5, 15]: 2.0
Intraoperative Numeric Pain Rating Scale, Mean [5, 16]: 2.5
Intraoperative Numeric Pain Rating Scale, Median [5, 16]: 2.0
Intraoperative Numeric Pain Rating Scale, Mean [5, 17]: 2.1
Intraoperative Numeric Pain Rating Scale, Median [5, 17]: 2.0
Intraoperative Numeric Pain Rating Scale, Mean [5, 18]: 1.3.
Intraoperative Numeric Pain Rating Scale, Median [5, 18]: 1.0
Intraoperative Numeric Pain Rating Scale, Mean [5, 19]: 1.1
Intraoperative Numeric Pain Rating Scale, Median [5, 19]: 1.0
Intraoperative Numeric Pain Rating Scale, Mean [5, 20]: 1.1
Intraoperative Numeric Pain Rating Scale, Median [5, 20]: 1.0
Intraoperative Numeric Pain Rating Scale, Mean [5, 21]: 3.3
Intraoperative Numeric Pain Rating Scale, Median [5, 21]: 3.0
Intraoperative Numeric Pain Rating Scale, Mean [5, 22]: 3.3
Intraoperative Numeric Pain Rating Scale, Median [5, 22]: 3.0
Intraoperative Numeric Pain Rating Scale, Mean [5, 23]: 2.5
Intraoperative Numeric Pain Rating Scale, Median [5, 23]: 2.0
Numeric Pain Rating Scale, LS Mean Difference Versus Placebo [5, 24]: −0.30
Numeric Pain Rating Scale, LS Mean Difference Versus Placebo [5, 25]: −0.32
Numeric Pain Rating Scale, LS Mean Difference Versus Placebo [5, 26]: −0.26

Cc1ncc2n1-c1ccc(Cl)cc1C(c1ccccc1F)=NC2 [Midazolam 3 mg]
Subjects Completing the Surgery without Interruption, No, % [1]: (0) %
Subjects Completing the Surgery without Interruption, Yes, % [1]: (100.0) %
Subjects Requiring Rescue Sedative Medication, Intraoperatively, % [2]: (8.6) %
Subjects Requiring Rescue Sedative Medication, No, % [2]: (65.4) %
Subjects Requiring Rescue Sedative Medication, Pre-operatively, % [2]: (25.9) %
Subjects Requiring Rescue Sedative Medication, Yes, % [2]: (34.6) %
Subjects Requiring Rescue Analgesic Medication, No, % [3]: (56.8) %
Subjects Requiring Rescue Analgesic Medication, Yes, % [3]: (43.2) %
Want Study Drug Again, Mean [4]: 8.4
Want Study Drug Again, Median [4]: 10.0
Want Study Drug Again, Mean Difference Versus Ketamine [4, 6]: 0.80
Want Study Drug Again, Mean Difference Versus Placebo [4, 6]: 0.75
Intraoperative Numeric Pain Rating Scale, Mean [5, 7]: 2.37
Intraoperative Numeric Pain Rating Scale, Median [5, 7]: 2.00
Intraoperative Numeric Pain Rating Scale, LS Mean [5, 8]: 2.12
Intraoperative Numeric Pain Rating Scale, Mean [5, 9]: 2.37
Intraoperative Numeric Pain Rating Scale, Median [5, 9]: 2.00
Intraoperative Numeric Pain Rating Scale, LS Mean [5, 10]: 2.37
Intraoperative Numeric Pain Rating Scale, Mean [5, 11]: 2.18
Intraoperative Numeric Pain Rating Scale, Median [5, 11]: 2.00
Intraoperative Numeric Pain Rating Scale, LS Mean [5, 12]: 2.46
Intraoperative Numeric Pain Rating Scale, Mean [5, 13]: 1.8
Intraoperative Numeric Pain Rating Scale, Median [5, 13]: 1.0
Intraoperative Numeric Pain Rating Scale, Mean [5, 14]: 1.8
Intraoperative Numeric Pain Rating Scale, Median [5, 14]: 1.0
Intraoperative Numeric Pain Rating Scale, Mean ([5]; Corneal incision, observed): 1.8
Intraoperative Numeric Pain Rating Scale, Median ([5]; Corneal incision, observed): 1.0
Intraoperative Numeric Pain Rating Scale, Mean [5, 15]: 2.9
Intraoperative Numeric Pain Rating Scale, Median [5, 15]: 3.0
Intraoperative Numeric Pain Rating Scale, Mean [5, 16]: 2.9
Intraoperative Numeric Pain Rating Scale, Median [5, 16]: 3.0
Intraoperative Numeric Pain Rating Scale, Mean [5, 17]: 2.5
Intraoperative Numeric Pain Rating Scale, Median [5, 17]: 2.0
Intraoperative Numeric Pain Rating Scale, Mean [5, 18]: 1.1
Intraoperative Numeric Pain Rating Scale, Median [5, 18]: 0.0
Intraoperative Numeric Pain Rating Scale, Mean [5, 19]: 1.1
Intraoperative Numeric Pain Rating Scale, Median [5, 19]: 0.0
Intraoperative Numeric Pain Rating Scale, Mean [5, 20]: 1.1
Intraoperative Numeric Pain Rating Scale, Median [5, 20]: 0.0
Intraoperative Numeric Pain Rating Scale, Mean [5, 21]: 3.6
Intraoperative Numeric Pain Rating Scale, Median [5, 21]: 4.0
Intraoperative Numeric Pain Rating Scale, Mean [5, 22]: 3.6
Intraoperative Numeric Pain Rating Scale, Median [5, 22]: 4.0
Intraoperative Numeric Pain Rating Scale, Mean [5, 23]: 2.9
Intraoperative Numeric Pain Rating Scale, Median [5, 23]: 3.0
Numeric Pain Rating Scale, LS Mean Difference Versus Ketamine [5, 24]: 0.22
Numeric Pain Rating Scale, LS Mean Difference Versus Placebo [5, 24]: −0.08
Numeric Pain Rating Scale, LS Mean Difference Versus Ketamine [5, 25]: 0.20
Numeric Pain Rating Scale, LS Mean Difference Versus Placebo [5, 25]: −0.12
Numeric Pain Rating Scale, LS Mean Difference Versus Ketamine [5, 26]: 0.24
Numeric Pain Rating Scale, LS Mean Difference Versus Placebo [5, 26]: −0.01
